According to publication PMC10502144, “Anti-methicillin-resistant Staphylococcus aureus activity and safety evaluation of 14-O-[(5-ethoxycarbonyl-4,6-dimethylpyrimidine-2-yl) thioacetyl] mutilin (EDT)” (Scientific Reports, 2023):

Key:
CYP1A2 = molecular target: T1, CYP1A2 (Rattus norvegicus, UniProt P04799); experiment: CYP450 inhibition in liver microsomes, probe substrate; type: biochemical; conditions: 30 min
T1 construct: from tissue; host or cells: rat liver microsomes
T1 sequence (P04799 1-513): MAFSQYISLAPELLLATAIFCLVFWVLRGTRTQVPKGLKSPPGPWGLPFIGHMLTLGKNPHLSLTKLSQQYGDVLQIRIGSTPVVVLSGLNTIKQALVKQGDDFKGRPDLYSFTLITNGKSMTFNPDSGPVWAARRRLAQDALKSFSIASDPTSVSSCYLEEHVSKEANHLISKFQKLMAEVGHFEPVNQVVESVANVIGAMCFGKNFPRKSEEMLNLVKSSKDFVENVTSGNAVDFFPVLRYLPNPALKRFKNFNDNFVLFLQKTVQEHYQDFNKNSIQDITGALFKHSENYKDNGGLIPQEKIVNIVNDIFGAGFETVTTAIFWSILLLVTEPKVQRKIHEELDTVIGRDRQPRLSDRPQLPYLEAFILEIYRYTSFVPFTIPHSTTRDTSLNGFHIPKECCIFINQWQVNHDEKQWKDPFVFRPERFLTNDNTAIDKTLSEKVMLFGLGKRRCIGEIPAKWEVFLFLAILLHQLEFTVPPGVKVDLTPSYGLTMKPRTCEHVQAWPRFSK
Experimental: (§1) Inhibition effects of EDT on cytochrome P450 were evaluated with rat liver microsomes in vitro[43]. Briefly, 12.8 mg EDT was dissolved in methanol and stored at 4 °C as reserve solution. A variety of specific probe substrate (1 μL), EDT solution (1 μL), incubation mixture (193 μL) in which contained glucose-6-phosphate, glucose-6-phosphate dehydrogenase, potassium phosphate buffer, magnesium chloride buffer and PBS buffer, were added into 5 μL liver microsomes to start the reaction at 37 °C. The final concentration of EDT in each group was 0.1, 1, 5, 10, 50, 100 μM. After 30 min, the reaction was terminated by adding the same volume of pre-cooled acetonitrile into the incubation system. After centrifugation for 10 min (8000×g at 4 °C), 10 μL supernatant was removed to analyze the metabolites of specific probe substrate by HPLC. The effects of EDT on CYP450 subtypes were evaluated using formula as follow: (1 − Cn/C0) × 100%, where Cn was substrate metabolite of different concentration of EDT, and C0 was metabolite of blank group.

CYP2C19 = experiment: as above; type: biochemical; conditions: CYP2C19, rat liver microsomes
Experimental: as §1

[1] = tested on: Salmonella Typhimurium TA97a; experiment: Ames test, TA97a
Experimental: (§2) Before the test, Salmonella Typhimurium (S. Typhimurium) TA97a, TA98, TA100, TA102, TA1535 and Escherichia coli WP2uvrA pKM101 (pKM101) were first checked for their genetic integrity, including biotin dependence, rfa marker (crystal violet), biotin, histidine dependence and presence of the plasmid pKM101 (ampicillin resistance) or pAQ1 (tetracycline resistance). […] The maximum concentration of EDT was also screened using a preliminary experiment.
(§3) DMSO (0.1 mL) was directly incorporated into 1.9 mL melted top agar as the vehicle control. […] Each strain (0.1 mL, 6–7 log10 CFU/mL) was added into 2 mL of top agar in which comprised 0.5 mL S9 (10%), serial concentrations of EDT (2000, 400, 80, 16 and 3.2 μg/plate), DMSO or control chemicals for testing with the S9. For testing without S9, 0.5 mL phosphate buffer saline (PBS, pH 7.4) replaced the S9 mix. Then, the obtained top agar was melted, poured onto the surface of […] and swirled to distribute the top agar to all surfaces of medium, followed by incubation at 37 °C for 48 h. The resultant colonies were counted manually as the number of revertant colonies per plate. The experiments were performed in triplicate and the results were expressed as the average ± SD.

[2] = tested on: S. Typhimurium TA97a, TA98, TA100, TA102, TA1535 and Escherichia coli WP2uvrA pKM101; experiment: Ames test, all tested strains (overall result and preliminary dose finding); type: cell-based, Salmonella Typhimurium; Escherichia coli
Experimental: as §2, §3

C=CC1(C)CC(OC(=O)CSc2nc(C)c(C(=O)OCC)c(C)n2)C2(C)C(C)CCC3(CCC(=O)C32)C(C)C1O (stereo not drawn) [EDT, 14-O-[(5-ethoxycarbonyl-4,6-dimethylpyrimidine-2-yl)thioacetyl] mutilin]
IC50 (CYP1A2): > 100 µM | IC50 at 30 min (CYP2C19): > 100 µM | number of revertant colonies per plate ([1]; 3.2 μg/plate, +S9): 57.67 ± 4.33 | number of revertant colonies per plate ([1]; 3.2 μg/plate, −S9): 52.00 ± 3.00 | number of revertant colonies per plate ([1]; 16 μg/plate, +S9): 46.00 ± 4.00 | number of revertant colonies per plate ([1]; 16 μg/plate, −S9): 44.33 ± 5.67 | number of revertant colonies per plate ([1]; 80 μg/plate, +S9): 50.33 ± 3.67 | number of revertant colonies per plate ([1]; 80 μg/plate, −S9): 53.33 ± 5.67 | number of revertant colonies per plate ([1]; 400 μg/plate, +S9): 54.33 ± 4.67 | number of revertant colonies per plate ([1]; 400 μg/plate, −S9): 56.00 ± 3.00 | number of revertant colonies per plate ([1]; 2000 μg/plate, +S9): 44.00 ± 5.00 | number of revertant colonies per plate ([1]; 2000 μg/plate, −S9): 52.00 ± 6.00 | toxicity to the test strains, preliminary experiment ([2]; 2000 μg/plate): not toxic | toxicity to the test strains, preliminary experiment ([2]; 5000 μg/plate): inhibited the test strains | number of revertant colonies compared with the vehicle control ([2]; 3.2-2000 μg/plate, −S9 and +S9, all strains): no significantly different
